The target of assay [1] is D-dopachrome decarboxylase (Homo sapiens, UniProt P30046). In words: Inhibition of DDT (unknown origin) expressed in Escherichia coli by absorbance based analysis.
Assay [2] addresses T1, Macrophage migration inhibitory factor (Homo sapiens) (UniProt P14174).
T1 sequence (whole entry): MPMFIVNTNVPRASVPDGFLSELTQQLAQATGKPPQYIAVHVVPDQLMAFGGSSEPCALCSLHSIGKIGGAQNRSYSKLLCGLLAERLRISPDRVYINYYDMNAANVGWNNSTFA
Briefly: Non-competitive inhibition of MIF (unknown origin) at 12.5 uM using pyruvic acid as substrate incubated for 10 mins by absorbance based analysis.

Calls of active or inactive are those of the source. No cut-off for these calls is given here.

As for `O=C(O)c1cccc(-c2cc(C(=O)O)ncc2C(=O)O)c1`, the IC50 in assay [1] was determined as 27 µM. For `COc1cccc2c1CC(NC(=O)c1cn(-c3ccc(Cl)c(C(F)(F)F)c3)nn1)CC2` (configuration not stated), the inhibition result in assay [2] was “Active”.

What is called IC50 is the point on the concentration scale where inhibition reaches its midpoint. High values mean lower potency, low ones higher potency.

Values taken from ChEMBL document CHEMBL5614379, “The synthesis of 1,2,3-triazoles as binders of D-dopachrome tautomerase (D-DT) for the development of dual-targeting inhibitors” (Eur J Med Chem, 2024).
